Measured values reported in patent US11083701B2, “Dermatomycosis treatment agent” (priority 2015, dated 2021).
≈ marks a conversion by molar mass, not a printed value.

Legend:
[1] = test system: T. mentagrophytes, IFM59813; test: Drug-sensitivity test, microdilution method, CLSI guidelines; assay type: cell-based, Trichophyton mentagrophytes
Experimental: (§1) The antimicrobial activity of therapeutic agents for treating dermatomycosis was evaluated and confirmed by performing a drug-sensitivity test with major pathogenic fungi in accordance with the CLSI (Clinical Laboratory Standards Institute, U.S.) guidelines. The pathogenic fungi selected were genus Trichophyton (T. rubrum, T. mentagrophytes), genus Microsporum (M. gypseum), genus Epidermophyton (E. floccosum), genus Candida (C. albicans), genus Aspergillus (A. fumigatus), and genus Cryptococcus (C. neoformans). The Examples show the test results. The antimicrobial activity of the compounds of the present invention (MIC, mg/ml) against T. mentagrophytes, which is a typical dermatophytic fungus, is as follows: tripotassium citrate 3.1; and trisodium citrate 6.3. A drug-sensitivity test with a fungus belonging to genus Malassezia (M. furfur) was also performed in accordance with the method of Sugita et al., which employs an agar dilution method (T. Sugita et al., J. Clinical Microbiology, 43, 2824-2829 (2005)). The antimicrobial activity against M. furfur (MIC, mg/ml) was as follows: tripotassium citrate 10.0.
In these drug-sensitivity tests, the medium contained Mg ions and Ca ions necessary for fungal conidia (spores) to germinate and grow. Because carboxyl groups of organic acids bind to these ions, organic acids have competitive inhibitory activity on fungal growth.
In the antimicrobial activity measurement method in accordance with the CLSI guidelines described above, an excessively large amount of magnesium ions and calcium ions is added to the RPMI-1640 medium for use. Thus, the trialkali metal salt of citric acid added to the test system binds completely to the excessively large amount of metal ions, resulting in an apparently large MIC value. For this reason, the ICP analytical method was performed to measure the content of magnesium ions and calcium ions in a test solution used as a blank test in this test system (a solution obtained by adding a solution containing spores of T. mentagrophytes to a RPMI-1640 medium solution, and performing a culture treatment) and to measure the content of magnesium ions and calcium ions in the original RPMI-1640 medium solution, thereby calculating the amount of alkali metal ions absorbed by the spores of T. mentagrophytes. The amount of the citric salt that can bind to all of the alkali metal ions absorbed by the spores is the substantial MIC value.
The antifungal activity of tripotassium citrate and trisodium citrate against a variety of pathogenic fungi was evaluated by performing a drug-sensitivity test. The test was performed using a microdilution method in accordance with the CLSI (Clinical Laboratory Standards Institute, U.S.) guidelines. […]

Candida krusei = conditions: Non-patent Literature 3; cited from earlier work
Aspergillus oryzae = conditions: Non-patent Literature 3; cited from earlier work
tinea corporis = test: Human case, Example 5: external treatment of tinea corporis; assay type: in vivo; conditions: 3% test solution, sprayed twice daily, after about 2 months
Experimental: (§2) The curative action of trialkali metal salts of citric acid on dermatomycosis was determined based on whether there was a therapeutic effect on human tinea. The cases of tinea used in the test include a variety of cases, such as vesicular tinea on the skin, interdigital tinea, hyperkeratotic tinea, tinea corporis, and tinea unguium. […] In these cases, no skin irritation due to the medicinal agents was confirmed. In many cases described in the Examples, Trichophyton fungus was isolated and identified as a pathogenic fungus; additionally, Example 10 describes a case in which Candida was isolated and identified, and Example 11 describes a case in which Aspergillus was isolated and identified.
A 3% test solution of tripotassium citrate prepared in the same manner as in Example 4 was sprayed twice daily onto tinea corporis that extensively developed over the left part of the buttocks. […] Although light brown pigmentation developed on the healed skin, it faded away over time and became less prominent.

M. furfur = test: Malassezia drug-sensitivity test, method of Sugita et al. (agar dilution); assay type: cell-based; conditions: mLNA medium, 32° C., 7 days
Experimental: as §1
The antimicrobial activity of tripotassium citrate against fungi belonging to genus Malassezia was evaluated by performing a drug-sensitivity test with human-related Malassezia species, in accordance with the method disclosed in Sugita et al. (2005). […]

[2] = test system: hyperkeratotic tinea (Trichophyton mentagrophytes isolated); test: Human case, Example 3: external treatment of hyperkeratotic tinea; assay type: in vivo; conditions: 0.5% test solution in 20% ethanol, sprayed three times daily, after about 3 months
Experimental: as §2
20% ethanol was added to 5.3 g of tripotassium citrate monohydrate to give 1000 g, thereby preparing a 0.5% test solution. The 0.5% test solution was applied to hyperkeratotic tinea that extensively developed on the arch on the sole of a foot by spraying the solution three times daily. […] From the area affected by this tinea, Trichophyton mentagrophytes, which is one type of Trichophyton fungi, was isolated and confirmed.

[3] = test system: tinea of nail and surrounding skin (Trichophyton rubrum isolated); test: Human case, Example 9: immersion treatment of fingernail tinea; assay type: in vivo; conditions: 5% test solution, finger immersed 5 hours once every 2 days, after 3 months
Experimental: as §2
20 mL of glycerin (84-87% aqueous solution) was added to 106 g of tripotassium citrate monohydrate, and 15% ethanol was further added thereto to give 2 L, thereby preparing a 5% test solution. About 2 mL of this test solution was placed into a commercially available fingerstall (size M). The middle finger of the right hand, which developed tinea on the right edge of the nail and the surrounding skin from the tip to the base of the nail, was immersed in the solution for 5 hours once every 2 days. […] From the nail specimen of this case, a Trichophyton fungus was isolated, and confirmed to be Trichophyton rubrum by gene analysis.

human tinea = test: Curative action on human tinea, overall (Examples 3 to 13); assay type: in vivo; conditions: 5% solution applied; relapse of symptoms and pigmentation before the end result
Experimental: as §2
Applying a 5% tripotassium citrate solution on the small red papules on the body made the papules smooth, and relapse of symptoms was observed after every day, with development of pigmentation, and followed by complete cure; this phenomenon was observed quite frequently. The relapse of symptoms was caused by germination of spores, and tripotassium citrate appears to have induced the germination of spores. The biggest factor for the low likelihood of curing dermatomycosis is the presence of spores; even after a treatment with a medicinal agent, if spores remain, the spores germinate, enabling dermatomycosis to return. […]

[4] = test system: tinea in four nails of the left foot; test: Human case, Example 8: immersion treatment of toenail tinea; assay type: in vivo; conditions: entire foot immersed 1 hour daily in 3% test solution, after a half year
Experimental: as §2
In the case in which tinea developed in all four nails except the fourth nail of the left foot, the entire foot was immersed for 1 hour daily in a 3% test solution prepared in the same manner as in Example 4. Over the course of the treatment, new nails grew from the base of the nails.

[5] = test system: thin hyperkeratotic tinea (Trichophyton rubrum isolated); test: Human case, Example 6: external treatment of thin hyperkeratotic tinea; assay type: in vivo; conditions: 3% test solution, sprayed once daily, after about 1 month
Experimental: as §2
A 3% test solution prepared in the same manner as in Example 4 was sprayed once daily onto thin hyperkeratotic tinea that extensively developed over around the tip of the nails on the sole of both feet. […] From this affected area of the skin, Trichophyton rubrum was isolated and confirmed.

C. albicans, IFM5740 = test: Drug-sensitivity test, microdilution method, CLSI guidelines; assay type: cell-based, Candida albicans
Experimental: as §1, with “10.0. […]” for “10.0.”
(§3) The antifungal activity of tripotassium citrate and trisodium citrate against a variety of pathogenic fungi was evaluated by performing a drug-sensitivity test. […]

tinea unguium = test: Human case, Example 12: external treatment of tinea unguium; assay type: in vivo; conditions: 10% aqueous solution, sprayed once daily, after a half year
Experimental: as §2
A 10% aqueous solution of tripotassium citrate was prepared. This 10% test solution was sprayed once daily on the right thumbnail, the entirety of which had developed tinea unguium.

[6] = test system: small red papules (Aspergillus tubingensis as the pathogen); test: Human case, Example 11: external treatment of small red papules; assay type: in vivo; conditions: 5% solution, sprayed once daily, left chest
Experimental: as §2
A 5% solution of tripotassium citrate prepared in the same manner as in Example 9 was sprayed once daily on small red papules that developed on the left chest part. […] From the small red papules, a body fluid was collected, and the pathogen was cultured, followed by gene analysis, thereby confirming Aspergillus tubingensis as the pathogen.

vesicular tinea = test: Human case, Example 4: external treatment of vesicular tinea; assay type: in vivo; conditions: 3% test solution, sprayed twice daily; symptom practically disappeared after about 1 month, treatment continued about 1 month more
Experimental: as §2
20 mL of glycerin (84-87% aqueous solution) was added to 63.6 g of tripotassium citrate monohydrate, and 15% ethanol was further added thereto to give 2 L, thereby preparing a 3% test solution. This 3% test solution was applied twice daily, by spraying the solution, to vesicular tinea that extensively developed on the arch of the left foot. After about 1 month, the skin symptom practically disappeared.

interdigital tinea = test: Human case, Example 7: external treatment of interdigital tinea; assay type: in vivo; conditions: 3% test solution, sprayed once daily, after about 2 months
Experimental: as §2
A 3% test solution prepared in the same manner as in Example 4 was sprayed once daily onto interdigital tinea that extensively developed between the toes of the feet.

[7] = test system: tinea unguium (Clavispora lusitaniae isolated); test: Human case, Example 10: external treatment of tinea unguium; assay type: in vivo; conditions: 5% solution, sprayed once daily, after one and a half months
Experimental: as §2
A 5% solution of tripotassium citrate prepared in the same manner as in Example 9 was sufficiently sprayed once daily on tinea unguium on the tip of the nail of the fourth finger of the right hand. […] From the nail specimen of this affected area, a Candida fungus was isolated and confirmed to be Clavispora lusitaniae (the teleomorph of Candida lusitaniae) by gene analysis.

A. fumigatus, IFM4942 = test: Drug-sensitivity test, microdilution method, CLSI guidelines; assay type: cell-based, Aspergillus fumigatus
Experimental: as §1, with “10.0. […]” for “10.0.”
as §3

T. rubrum, IFM59814 = test: as above; assay type: cell-based, Trichophyton rubrum
Experimental: as §1, with “10.0. […]” for “10.0.”
as §3

E. floccosum, IFM53345 = test: as above; assay type: cell-based, Epidermophyton floccosum
Experimental: as §1, with “10.0. […]” for “10.0.”
as §3

C. neoformans, IFM5807 = test: as above; assay type: cell-based, Cryptococcus neoformans
Experimental: as §1, with “10.0. […]” for “10.0.”
as §3

M. gypseum, IFM58916 = test: as above; assay type: cell-based, Microsporum gypseum
Experimental: as §1, with “10.0. […]” for “10.0.”
as §3

Candida albicans = conditions: Non-patent Literature 5; cited from earlier work
small red papules = test: Human case, Example 13: external treatment of small red papules; assay type: in vivo; conditions: 3% (also printed 5%) test solution, sprayed once daily, left thigh
Experimental: as §2
A 3% test solution of trisodium citrate was prepared in the same manner as in Example 4. This 5% test solution was sprayed once daily on small red papules that developed on the left thigh.

Which MIC [1] does the source give for C[C@@H]1[C@H](O)[C@@H](C)/C=C/C=C/C=C/C=C/C=C/C=C/C=C/[C@H](O[C@@H]2O[C@H](C)[C@@H](O)[C@H](N)[C@@H]2O)C[C@@H]2O[C@](O)(C[C@@H](O)C[C@@H](O)[C@H](O)CC[C@@H](O)C[C@@H](O)CC(=O)O[C@H]1C)C[C@H](O)[C@H]2C(=O)O [amphotericin B, reference compound] here?
The MIC was 2000 µg/mL (≈ 2160 µM).

What does the source list for O=C(O)CC(O)(CC(=O)O)C(=O)O [citric acid, reference compound]?
antimicrobial activity (Candida krusei): did not exhibit antimicrobial activity; antimicrobial activity (Aspergillus oryzae): did not exhibit antimicrobial activity

What does the source list for O=C([O-])CC(O)(CC(=O)[O-])C(=O)[O-].[K+].[K+].[K+] [tripotassium citrate]?
curative effect on tinea corporis (tinea corporis): tinea corporis disappeared, and healthy skin grew back; MIC (M. furfur): 10000 µg/mL; curative effect on hyperkeratotic tinea [2]: hyperkeratotic tinea disappeared, and clean skin grew back; curative effect on tinea of fingernail and surrounding skin [3]: a healthy nail and skin grew back; MIC [1]: 3100 µg/mL; corrected MIC value ([1]; corrected for the metal ions absorbed by spores (ICP analysis)): 54 µg/mL; effect on small red papules on the body (human tinea): complete cure; curative effect on nail tinea (foot) [4]: tinea in all of the nails was fully cured; curative effect on thin hyperkeratotic tinea [5]: pink-color, healthy skin grew back; MIC (C. albicans, IFM5740): 25000 µg/mL; curative effect on tinea unguium (tinea unguium): a healthy nail returned; effect on small red papules (Aspergillus) [6]: immediately shrank, and after one week, pigmentation and cicatrization occurred; curative effect on vesicular tinea (vesicular tinea): this tinea was cured; curative effect on interdigital tinea (interdigital tinea): the skin symptom disappeared, and healthy skin grew back; curative effect on tinea unguium (Candida) [7]: tinea unguium was cured; MIC (A. fumigatus, IFM4942): 6300 µg/mL; MIC (T. rubrum, IFM59814): 12500 µg/mL; MIC (E. floccosum, IFM53345): 1600 µg/mL; MIC (C. neoformans, IFM5807): 390 µg/mL; MIC (M. gypseum, IFM58916): 12500 µg/mL

With O=C([O-])CC(O)(CC(=O)[O-])C(=O)[O-].[Na+].[Na+].[Na+] [trisodium citrate] as the compound, how does the antimicrobial activity (Candida krusei) read?
Its antimicrobial activity is “did not exhibit antimicrobial activity”.

What about the MIC [1] of the same compound?
The MIC was 6300 µg/mL.

And the antimicrobial activity (Candida albicans)?
Its antimicrobial activity is “exhibited antimicrobial activity”.

What about the “effect on small red papules” value (small red papules) of the same compound?
Its value is “immediately shrank, and after 2 weeks, cicatrization and pigmentation occurred”.

And the antimicrobial activity (Aspergillus oryzae)?
Its antimicrobial activity is “did not exhibit antimicrobial activity”.
